# Legend:
# Pregnant CD-1 mice = assay: Litter parameters at necropsy (implantation sites, resorptions, viable and nonviable embryos); assay type: in vivo, mouse (CD-1); details: for % nonviable / % resorbed: percent of implantation sites
# Procedure: On the day of necropsy, dams received daily oral gavage between 0700 and 0800 hours and were weighed and then euthanized humanely by swift decapitation, and serum was collected. In Block 1, necropsies were completed from 0800 to 1600 hours, and in Block 2, necropsies were completed from 0800 to 1200 hours. Serum from dams euthanized in Block 1 was snap frozen for internal dosimetry analyses. Serum and urine from Block 2 dams were reserved for clinical chemistry analyses. In both blocks, the uterus was removed, and total implantation sites were counted based on gross observation of an implantation nodule along the uterine horn. Viable embryos, nonviable embryos, and sites of resorption were counted based on gross observation. Embryos were considered viable if they were properly formed, were not pale in color, and were of similar size to neighboring embryos. Embryos that were poorly formed and pale in color (without heartbeat) were considered nonviable. Sites of resorption were defined as a dark red–appearing clot-like nodule apparent on gross observation.
# maternal liver = assay: Transmission electron microscopy of dam liver; assay type: in vivo, mouse (CD-1); details: E17.5
# Description: Block 2 dam liver portions stored in McDowell and Trump’s fixative ([McDowell and Trump 1976]) were processed using a Leica EM TP processor. Briefly, samples were rinsed with buffer, postfixed in 1% osmium tetroxide in 0.1-M phosphate buffer, rinsed in distilled water, dehydrated, and embedded in Ply/Bed® 812 (Polysciences, Inc.) epoxide resin. Blocks were trimmed, and semithin sections ( ∼0.5μm ) were stained with 1% toluidine blue (Poly-scientific R&D Corp.) O in 1% sodium borate to ascertain areas of interest. Ultrathin sections ( […] ) were cut from areas of interest and placed on 200-mesh copper grids and stained with uranyl acetate and lead citrate, and digital images were captured using an Orius® SC1000 side mount camera (Gatan) attached to a Techani T12 transmission electron microscope (TEM) (FEI Company). In general, peroxisomes were smaller than mitochondria and round with a dark, electron-dense, granular matrix and surrounded by a single membrane. […] Samples were analyzed by R.D.K., Ph.D.
smiles,measurement,setting,value
"N.O=C(O)C(F)(OC(F)(F)C(F)(F)C(F)(F)F)C(F)(F)F (stereo not shown) [GenX, ammonium 2,3,3,3-tetrafluoro-2-(heptafluoropropoxy)propanoate]",No. dead embryos,"Pregnant CD-1 mice; E11.5, 2 mg/kg/d",0.0 ± 0.0
same,No. implantation sites,"Pregnant CD-1 mice; E11.5, 2 mg/kg/d",14.7 ± 2.7
same,No. resorptions,"Pregnant CD-1 mice; E11.5, 2 mg/kg/d",0.7 ± 0.8
same,No. viable embryos,"Pregnant CD-1 mice; E11.5, 2 mg/kg/d",14.0 ± 2.9
same,No. dead embryos,"Pregnant CD-1 mice; E11.5, 10 mg/kg/d",0.1 ± 0.3
same,No. implantation sites,"Pregnant CD-1 mice; E11.5, 10 mg/kg/d",14.8 ± 3.7
same,No. resorptions,"Pregnant CD-1 mice; E11.5, 10 mg/kg/d",0.9 ± 1.3
same,No. viable embryos,"Pregnant CD-1 mice; E11.5, 10 mg/kg/d",13.8 ± 3.7
same,No. dead embryos,"Pregnant CD-1 mice; E17.5, 2 mg/kg/d",0.1 ± 0.3
same,No. implantation sites,"Pregnant CD-1 mice; E17.5, 2 mg/kg/d",13.8 ± 2.0
same,No. resorptions,"Pregnant CD-1 mice; E17.5, 2 mg/kg/d",0.2 ± 0.6
same,No. viable embryos,"Pregnant CD-1 mice; E17.5, 2 mg/kg/d",13.5 ± 2.1
same,No. dead embryos,"Pregnant CD-1 mice; E17.5, 10 mg/kg/d",0.0 ± 0.0
same,No. implantation sites,"Pregnant CD-1 mice; E17.5, 10 mg/kg/d",12.5 ± 3.1
same,No. resorptions,"Pregnant CD-1 mice; E17.5, 10 mg/kg/d",0.5 ± 0.7
same,No. viable embryos,"Pregnant CD-1 mice; E17.5, 10 mg/kg/d",12.0 ± 3.0
same,% nonviable,"Pregnant CD-1 mice; E11.5, 2 mg/kg/d",0.0 ± 0.0%
same,% resorbed,"Pregnant CD-1 mice; E11.5, 2 mg/kg/d",5.0 ± 6.2%
same,% nonviable,"Pregnant CD-1 mice; E11.5, 10 mg/kg/d",2.1 ± 7.2%
same,% resorbed,"Pregnant CD-1 mice; E11.5, 10 mg/kg/d",5.6 ± 7.7%
same,% nonviable,"Pregnant CD-1 mice; E17.5, 2 mg/kg/d",0.7 ± 2.4%
same,% resorbed,"Pregnant CD-1 mice; E17.5, 2 mg/kg/d",1.2 ± 4.1%
same,% nonviable,"Pregnant CD-1 mice; E17.5, 10 mg/kg/d",0.0 ± 0.0%
same,% resorbed,"Pregnant CD-1 mice; E17.5, 10 mg/kg/d",3.5 ± 5.3%
same,Liver ultrastructure (TEM),maternal liver; 2 mg/kg/d,abnormal ultrastructure
same,Liver ultrastructure (TEM),maternal liver; 10 mg/kg/d,abnormal ultrastructure
"O=C(O)C(F)(F)C(F)(F)C(F)(F)C(F)(F)C(F)(F)C(F)(F)C(F)(F)F [PFOA, Perfluorooctanoic acid]",No. dead embryos,"Pregnant CD-1 mice; E11.5, 1 mg/kg/d",0.0 ± 0.0
same,No. implantation sites,"Pregnant CD-1 mice; E11.5, 1 mg/kg/d",15.5 ± 2.7
same,No. resorptions,"Pregnant CD-1 mice; E11.5, 1 mg/kg/d",0.6 ± 0.5
same,No. viable embryos,"Pregnant CD-1 mice; E11.5, 1 mg/kg/d",14.8 ± 2.5
same,No. dead embryos,"Pregnant CD-1 mice; E11.5, 5 mg/kg/d",0.1 ± 0.3
same,No. implantation sites,"Pregnant CD-1 mice; E11.5, 5 mg/kg/d",14.5 ± 2.3
same,No. resorptions,"Pregnant CD-1 mice; E11.5, 5 mg/kg/d",0.5 ± 0.9
same,No. viable embryos,"Pregnant CD-1 mice; E11.5, 5 mg/kg/d",13.9 ± 2.2
same,No. dead embryos,"Pregnant CD-1 mice; E17.5, 1 mg/kg/d",0.1 ± 0.3
same,No. implantation sites,"Pregnant CD-1 mice; E17.5, 1 mg/kg/d",13.5 ± 2.0
same,No. resorptions,"Pregnant CD-1 mice; E17.5, 1 mg/kg/d",0.3 ± 0.5
same,No. viable embryos,"Pregnant CD-1 mice; E17.5, 1 mg/kg/d",13.1 ± 2.1
same,No. dead embryos,"Pregnant CD-1 mice; E17.5, 5 mg/kg/d",0.0 ± 0.0
same,No. implantation sites,"Pregnant CD-1 mice; E17.5, 5 mg/kg/d",13.7 ± 2.1
same,No. resorptions,"Pregnant CD-1 mice; E17.5, 5 mg/kg/d",0.3 ± 0.5
same,No. viable embryos,"Pregnant CD-1 mice; E17.5, 5 mg/kg/d",13.3 ± 1.9
same,% nonviable,"Pregnant CD-1 mice; E11.5, 1 mg/kg/d",0.0 ± 0.0%
same,% resorbed,"Pregnant CD-1 mice; E11.5, 1 mg/kg/d",4.0 ± 3.3%
same,% nonviable,"Pregnant CD-1 mice; E11.5, 5 mg/kg/d",0.6 ± 1.9%
same,% resorbed,"Pregnant CD-1 mice; E11.5, 5 mg/kg/d",3.6 ± 5.9%
same,% nonviable,"Pregnant CD-1 mice; E17.5, 1 mg/kg/d",0.6 ± 2.1%
same,% resorbed,"Pregnant CD-1 mice; E17.5, 1 mg/kg/d",2.6 ± 3.9%
same,% nonviable,"Pregnant CD-1 mice; E17.5, 5 mg/kg/d",0.0 ± 0.0%
same,% resorbed,"Pregnant CD-1 mice; E17.5, 5 mg/kg/d",2.3 ± 3.4%
same,Liver ultrastructure (TEM),maternal liver; 1 mg/kg/d,"enlarged hepatocytes with increased cytoplasmic organelles consistent with mitochondria and peroxisomes, evenly dispersed glycogen, and small vacuoles in the centrilobular regions"
same,Liver ultrastructure (TEM),maternal liver; 5 mg/kg/d,abnormal ultrastructure

# From paper PMC7064328 (Environmental Health Perspectives, 2020)
